Test system: female NOD mice
Assay: Plasma lipidomics in FKGK18- and PBS-T-treated NOD mice that developed T1D
Assay type: in vivo, mouse
Conditions: treatment initiated at 10 days or 4 weeks of age
Procedure: FIGS. 11A-11I show a comparison of select plasma lipids in diabetic NOD mice. NOD mice were treated with PBS-Tor with FKGK18, starting at 10 days or 4 weeks of age, and sacrificed at the onset of diabetes. Plasma was prepared from these mice and processed for lipidomics analyses. The data (mean±SEM) represent pmol of each lipid species in 100 or 50 µL plasma fo LTC4 (FIG. 11A), 15-HETE (FIG. 11B), 5-HETE (FIG. 11C), PGD2 (FIG. 11D), AA (FIG. 11E), So1P/So (FIG. 11F), EET/DHET (FIG. 11G), resolving D2 (FIG. 11H), and DHA (FIG. 11I). (Statistical analyses: Students′ t-test. N=4/group.).
Next, to determine if a proinflammatory landscape persists until T1D onset, Applicants performed lipidomic analyses with plasma from FKGK18- and PBS-T-treated NOD (starting at 10 days). […] Furthermore, the ratio of So1P/So was higher in diabetic PBS-T-NOD, in comparison with nondiabetic PBS-T- or FKGK18-treated NOD (FIG. 6F). […]
Analysis of sphingolipids, eicosanoids, and fatty acids by ultra performance liquid chromatography-electrospray ionization-tandem mass spectrometry. […] Sphingolipids, eicosanoids, and fatty acids were analyzed via mass spectrometry using an AB Sciex Triple Quad 5500 Mass Spectrometer. […] The MΦ (2.75 × 10^6) were administered i.p. to 8-week-old female NOD, and diabetes incidence was recorded through weekly blood glucose monitoring.

For `O=C(CCCCc1ccc2ccccc2c1)C(F)(F)F` [FKGK18], the “plasma PGD2 relative to PBS-T (d) groups” value (mice that developed T1D) was “decrease” and the “plasma lipids vs PBS-T in mice that developed T1D” value (sacrificed at onset of diabetes, all lipids except PGD2) was “no differences”.
